# Where “and” joins values, the source holds several entries; their conditions need not be identical. Identical values can stand only once.
# System: WM3248 melanoma cells, 486 antibodies
# Assay: Reverse phase protein arrays (RPPA);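 for RPPA AceCS1.R.V: ratio of treated to vehicle (0 µM) normalized linear protein signal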;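 for RPPA Akt1 pS473.R.V: ratio of treated to vehicle (0 µM) normalized linear protein signal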;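 for RPPA Akt1.R.V: ratio of treated to vehicle (0 µM) normalized linear protein signal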;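 for RPPA Ambra1 pS52.R.C: ratio of treated to vehicle (0 µM) normalized linear protein signal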;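 for RPPA Atg5.R.C: ratio of treated to vehicle (0 µM) normalized linear protein signal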;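 for RPPA Bim.R.V: ratio of treated to vehicle (0 µM) normalized linear protein signal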
# Format: cell-based, Human
# Settings: 5 uM
# Excerpt: Pellets were snap frozen in liquid nitrogen and shipped to MD Anderson Cancer Center core RPPA facility for RPPA analysis (Table S5). Three biological replicates for each sample were generated.
# Nomenclatures on the RPPA heatmaps: name_of_antibody.species_of_antibody.status_of_antibody. V - antibody validated; C - validation of antibody in progress; Q - antibody nonspecific; E – under evaluation; antibodies raised in M - mouse, G - goat, R - rabbit, or T - rat.
structure (smiles),measurement,setting,value
"CN(C)c1cccc(Nc2cc(-c3ccccc3)nc(C3CCNCC3)n2)c1 [ARN22089, N1,N1-dimethyl-N3-(6-phenyl-2-(piperidin-4-yl)pyrimidin-4-yl)benzene-1,3-diamine]",RPPA AceCS1.R.V,B.1,1.006
same,RPPA Akt1.R.V,B.1,0.910
same,RPPA Akt1_pS473.R.V,B.1,0.894
same,RPPA Akt2.R.V,B.1,0.975
same,RPPA Akt2_pS474.R.C,B.1,1.016
same,RPPA Akt_pS473.R.V,B.1,0.899
same,RPPA Akt_pT308.R.V,B.1,0.827
same,RPPA Ambra1_pS52.R.C,B.1,0.978
same,RPPA Annexin.I.M.V,B.1,1.021
same,RPPA Atg3.R.V,B.1,0.935
same,RPPA Atg4B.R.C,B.1,0.930
same,RPPA Atg5.R.C,B.1,0.974
same,RPPA Atg7.R.V,B.1,0.761
same,RPPA Aurora.A.R.C,B.1,1.245
same,RPPA Aurora.ABC_pT288_pT232_pT198.R.C,B.1,0.869
same,RPPA Axl.R.V,B.1,0.622
same,RPPA B7.H3.R.C,B.1,0.992
same,RPPA B.Raf.R.C,B.1,0.902
same,RPPA BAP1.M.V,B.1,0.996
same,RPPA BCL2A1.R.V,B.1,0.908
same,RPPA BMK1.Erk5_pT218_Y220.R.V,B.1,1.119
same,RPPA BRCA1.M.C,B.1,0.934
same,RPPA BRD4.R.V,B.1,1.027
same,RPPA Bad_pS112.R.V,B.1,0.939
same,RPPA Bak.R.C,B.1,0.987
same,RPPA Bax.R.V,B.1,0.996
same,RPPA Bcl.xL.R.V,B.1,1.022
same,RPPA Beclin.R.C,B.1,1.111
same,RPPA BiP.GRP78.M.C,B.1,0.998
same,RPPA Bid.R.C,B.1,0.999
same,RPPA Bim.R.V,B.1,0.906
same,RPPA X4E.BP1.R.V,B.1,0.997
same,RPPA X4E.BP1_pS65.R.V,B.1,1.205
same,RPPA X4E.BP1_pT37_T46.R.V,B.1,1.170
same,RPPA X14.3.3.zeta.R.V,B.1,1.080
same,RPPA X14.3.3βR.V,B.1,1.052
same,RPPA X53BP1.R.V,B.1,0.907
same,RPPA b.Catenin.R.V,B.1,1.025
same,RPPA b.Catenin_pT41_S45.R.V,B.1,0.975
same,RPPA c.Abl.R.V,B.1,0.965
same,RPPA c.Abl_pY412.R.C,B.1,0.885
same,RPPA c.IAP2.R.C,B.1,1.018
same,RPPA PREX1.R.V Average,average of 3,1.056
same,RPPA PYGB.R.V Average,average of 3,0.877
same,RPPA PYGM.M.C Average,average of 3,0.831
same,RPPA Puma.R.C Average,average of 3,0.937
same,RPPA RBM15.R.V Average,average of 3,0.979
same,RPPA RIP3.R.C Average,average of 3,1.059
same,RPPA RIP.R.C Average,average of 3,0.875
same,RPPA RPA32.R.V Average,average of 3,0.880
same,RPPA RPA32_pS4_S8.R.C Average,average of 3,0.828
same,RPPA RRM1.R.C Average,average of 3,0.995
same,RPPA RRM2.R.C Average,average of 3,1.008
same,RPPA RSK1.R.V Average,average of 3,0.889
same,RPPA RSK.R.C Average,average of 3,1.023
same,RPPA Rab25.R.V Average,average of 3,1.051
same,RPPA Rad17_pS645.R.V Average,average of 3,1.079
same,RPPA Rad23A.R.C Average,average of 3,0.869
same,RPPA Rad50.R.V Average,average of 3,0.989
same,RPPA Rad51.R.C Average,average of 3,1.005
same,RPPA Raptor.R.V Average,average of 3,1.028
same,RPPA Rb_pS807_S811.R.V Average,average of 3,1.059
same,RPPA Rheb.M.C Average,average of 3,0.971
same,RPPA Rictor.R.C Average,average of 3,1.019
same,RPPA Rictor_pT1135.R.V Average,average of 3,1.106
same,RPPA S6_pS235_S236.R.V Average,average of 3,1.300
same,RPPA S6_pS240_S244.R.V Average,average of 3,1.738
same,RPPA SCD.M.V Average,average of 3,1.005
same,RPPA SDHA.R.V Average,average of 3,1.077
same,RPPA SF2.R.V Average,average of 3,1.028
same,RPPA SFRP1.R.V Average,average of 3,0.962
same,RPPA SGK1.R.V Average,average of 3,1.098
same,RPPA SGK3.R.V Average,average of 3,0.993
same,RPPA SHP2.R.V Average,average of 3,0.993
same,RPPA SHP.2_pY542.R.C Average,average of 3,0.941
same,RPPA SIRPαR.V Average,average of 3,0.994
same,RPPA SLC1A5.R.C Average,average of 3,0.898
same,RPPA SOD1.M.V Average,average of 3,1.002
same,RPPA SOD2.R.V Average,average of 3,1.033
same,RPPA SOX7.R.V Average,average of 3,0.921
same,RPPA STING.R.V Average,average of 3,1.006
same,RPPA Shc_pY317.R.C Average,average of 3,0.879
same,RPPA Slfn11.G.C Average,average of 3,0.785
same,RPPA Smac.M.Q Average,average of 3,0.922
same,RPPA Smad1.R.V Average,average of 3,1.113
same,RPPA Smad3.R.V Average,average of 3,0.963
same,RPPA Smad4.R.V Average,average of 3,1.032
same,RPPA Snail.M.Q Average,average of 3,1.012
same,RPPA Sox2.R.V Average,average of 3,0.986
same,RPPA Sox17.R.V Average,average of 3,0.955
same,RPPA Src_pY416.R.V Average,average of 3,0.979
same,RPPA Src_pY527.R.V Average,average of 3,1.190
same,RPPA Stat1_pY701.R.V Average,average of 3,0.966
same,RPPA Stat3.R.C Average,average of 3,1.005
same,RPPA Stat3_pY705.R.C Average,average of 3,0.914
same,RPPA Stat5a.R.V Average,average of 3,1.163
same,RPPA Stathmin.1.R.V Average,average of 3,0.991
same,RPPA Syk.M.V Average,average of 3,0.987
same,RPPA Synaptophysin.R.C Average,average of 3,1.017
same,RPPA TAZ.R.V Average,average of 3,0.956
same,RPPA TEAD.R.C Average,average of 3,1.012
same,RPPA TFAM.R.V Average,average of 3,1.014
same,RPPA TFRC.R.V Average,average of 3,0.971
same,RPPA TIGAR.R.V Average,average of 3,1.035
same,RPPA TRAP1.M.V Average,average of 3,0.973
same,RPPA TRIM24.R.C Average,average of 3,0.998
same,RPPA TRIP13.R.V Average,average of 3,0.948
same,RPPA Tau.M.C Average,average of 3,0.996
same,RPPA Transglutaminase.M.V Average,average of 3,0.913
same,"RPPA signal, antibody TSC1.R.C, Average",average of 3 replicates,1.118
same,"RPPA signal, antibody TTF1.R.V, Average",average of 3 replicates,0.922
same,"RPPA signal, antibody TUFM.R.V, Average",average of 3 replicates,1.149
same,"RPPA signal, antibody Tuberin.R.V, Average",average of 3 replicates,1.289
same,"RPPA signal, antibody Tuberin_pT1462.R.V, Average",average of 3 replicates,0.994
same,"RPPA signal, antibody Twist.M.C, Average",average of 3 replicates,0.991
same,"RPPA signal, antibody Tyro3.R.V, Average",average of 3 replicates,0.915
same,"RPPA signal, antibody UBAC1.R.V, Average",average of 3 replicates,0.933
same,"RPPA signal, antibody UBQLN4.M.C, Average",average of 3 replicates,1.031
same,"RPPA signal, antibody UGT1A.M.V, Average",average of 3 replicates,0.995
same,"RPPA signal, antibody ULK1_pS757.R.C, Average",average of 3 replicates,1.103
same,"RPPA signal, antibody UQCRC2.M.C, Average",average of 3 replicates,0.845
same,"RPPA signal, antibody UVRAG.R.C, Average",average of 3 replicates,1.060
same,"RPPA signal, antibody VASP.R.V, Average",average of 3 replicates,1.009
same,"RPPA signal, antibody VEGFR.2_pY1175.R.C, Average",average of 3 replicates,0.987
same,"RPPA signal, antibody VHL.EPPK1.M.C, Average",average of 3 replicates,0.993
same,"RPPA signal, antibody VHL.R.C, Average",average of 3 replicates,0.983
same,"RPPA signal, antibody Vinculin.M.V, Average",average of 3 replicates,0.997
same,"RPPA signal, antibody WIPI1.R.C, Average",average of 3 replicates,0.904
same,"RPPA signal, antibody WTAP.R.V, Average",average of 3 replicates,0.916
same,"RPPA signal, antibody Wee1.R.C, Average",average of 3 replicates,1.196
same,"RPPA signal, antibody Wee1_pS642.R.C, Average",average of 3 replicates,1.114
same,"RPPA signal, antibody XBP.1.G.C, Average",average of 3 replicates,0.890
same,"RPPA signal, antibody XPA.M.V, Average",average of 3 replicates,1.012
same,"RPPA signal, antibody XPF.R.C, Average",average of 3 replicates,1.010
same,"RPPA signal, antibody XRCC1.R.C, Average",average of 3 replicates,0.941
same,"RPPA signal, antibody YAP.R.C, Average",average of 3 replicates,1.005
same,"RPPA signal, antibody YAP_pS127.R.V, Average",average of 3 replicates,0.945
same,"RPPA signal, antibody YB1_pS102.R.V, Average",average of 3 replicates,0.981
same,"RPPA signal, antibody YES1.R.V, Average",average of 3 replicates,0.965
same,"RPPA signal, antibody YTHDF2.R.V, Average",average of 3 replicates,0.921
same,"RPPA signal, antibody YTHDF3.R.C, Average",average of 3 replicates,0.920
same,"RPPA signal, antibody ZAP.70.R.V, Average",average of 3 replicates,1.002
same,"RPPA signal, antibody ZEB1.R.V, Average",average of 3 replicates,0.953
same,"RPPA signal, antibody TSC1.R.C",individual replicates,1.023 and 1.362
same,"RPPA signal, antibody TTF1.R.V",individual replicates,0.931 and 1.030 and 0.806
same,"RPPA signal, antibody TUFM.R.V",individual replicates,1.892 and 0.802 and 0.754
same,"RPPA signal, antibody Tuberin.R.V",individual replicates,0.956 and 1.663 and 1.249
same,"RPPA signal, antibody Tuberin_pT1462.R.V",individual replicates,0.926 and 1.194 and 0.864
same,"RPPA signal, antibody Twist.M.C",individual replicates,1.006 and 0.964 and 1.005
same,"RPPA signal, antibody Tyro3.R.V",individual replicates,1.127 and 0.928 and 0.691
same,"RPPA signal, antibody U.Histone.H2B.R.C",individual replicates,0.941
same,"RPPA signal, antibody UBAC1.R.V",individual replicates,0.942 and 1.076 and 0.780
same,"RPPA signal, antibody UBQLN4.M.C",individual replicates,0.956 and 1.187
same,"RPPA signal, antibody UGT1A.M.V",individual replicates,1.021 and 0.968 and 0.996
same,"RPPA signal, antibody ULK1_pS757.R.C",individual replicates,1.126
same,"RPPA signal, antibody UQCRC2.M.C",individual replicates,0.997 and 0.500
same,"RPPA signal, antibody UVRAG.R.C",individual replicates,0.983 and 1.130
same,"RPPA signal, antibody VASP.R.V",individual replicates,0.982 and 1.010
same,"RPPA signal, antibody VAV1.R.C",individual replicates,0.910 and 1.057 and 1.165
same,"RPPA signal, antibody VEGFR.2.R.V",individual replicates,0.908 and 1.050 and 1.150
same,"RPPA signal, antibody VEGFR.2_pY1175.R.C",individual replicates,0.907 and 1.020
same,"RPPA signal, antibody VHL.EPPK1.M.C",individual replicates,0.920
same,"RPPA signal, antibody VHL.R.C",individual replicates,1.080 and 0.894 and 0.975

# Source: article PMC9127750, “Structure-based design of CDC42 effector interaction inhibitors for the treatment of cancer” (Cell reports, 2022)
